Reference: article PMC7248311, “Bisphenol A Diglycidyl Ether (BADGE) and Bisphenol Analogs, but Not Bisphenol A (BPA), Activate the CatSper Ca^2+ Channel in Human Sperm” (Frontiers in Endocrinology, 2020)
Entries after “also recorded” stand apart in the source; their conditions may differ. Where two headings read alike, the source gives them in different places.

How the values were obtained:
human sperm cells [1] = assay: Ca^2+ fluorimetric assay: Ca^2+ signals ([Ca^2+]i) induced in human sperm cells; type: cell-based; settings: for Induction of Ca^2+ signals in human sperm cells (in words): 10 μM; for EC50 / activation at 10 µM: Homo sapiens, Sperm; for EC50: read-out: EC50, μM Mean; for activation at 10 µM: read-out: Mean relative peak Ca^2+ signal at 10 μM (in %) (n = 3); for EC05, μM Mean: lowest effective dose from dose response of induced Ca^2+ signals
Method: (§1) Changes in the free intracellular Ca^2+ concentration [Ca^2+]i in human sperm cells were measured in 384 multi-well-plates in a fluorescence plate reader (Fluostar Omega, BMG Labtech, Germany) at 30°C as described in Rehfeld et al. ([41]). Briefly, sperm cells were incubated with the fluorescent Ca^2+ indicator Fluo-4, AM (10 μM) for 45 min at 37°C. […] Fluorescence was recorded before and after addition of 25 μL bisphenol solutions, negative control (buffer with vehicle), positive control (progesterone, 5 μM final concentration) manually with an electronic multichannel pipette to duplicate wells. […] For the inhibition studies mean basal fluorescence (F0) was defined as the last 5 cycles before addition of 100 nM progesterone.
The bisphenols were screened at a concentration of 10 μM, along a positive control (progesterone, 5 μM), and negative control (HTF^+ with vehicle). Changes in [Ca^2+]i were recorded for 4 min after addition of the chemicals and controls. We calculated the relative peak Ca^2+ signal in % induced by the bisphenols, by dividing the peak Ca^2+ signal with that of the paired positive control, in order to compare data from the different experiments.

[2] = system: progesterone-induced Ca^2+ signals in human sperm cells; assay: Inhibition of Ca^2+ signals induced by 100 nM progesterone after 5 min pre-incubation with bisphenols; type: cell-based; settings: for Dose-dependent inhibition of progesterone-induced Ca^2+ signals (in words): 100 nM progesterone, 5 min pre-incubation; for IC50: Homo sapiens, Sperm, read-out: IC50, μM Mean
Method: as §1
We compared the amplitude of the Ca^2+ signals induced by 100 nM of progesterone in human sperm cells after 5 min of pre-incubation with serially diluted doses of the bisphenols or a negative buffer control.

human sperm [3] = system: human sperm; parameters: method as in PMID 27686954; settings: cited from earlier work
human sperm [4] = system: human sperm; parameters: method as in doi:10.20883/jms.2016.5; settings: 0.1 nM−1 μM ref 40; cited from earlier work
human sperm cells [5] = settings: cited from earlier work
[6] = system: G protein-coupled estrogen receptor (GPER); parameters: method as in PMID 28858478; settings: low doses ref 46; cited from earlier work
[7] = system: voltage-activated Ca^2+ channels; settings: cited from earlier work
human sperm cells [8] = assay: Sperm penetration into a viscous medium (modified Kremer's test, methylcellulose); type: cell-based; settings: 10 μM, 60 min, counted at 2 cm, vs negative control
Method: Assessment of sperm penetration was done using sperm penetration tests with 4,000 cP methylcellulose (1% w/v) as an artificial viscous medium as described in Alasmari et al. ([43]). The viscous methylcellulose (1% w/v) medium was prepared in HTF^+ by adding 10 mg methylcellulose per mL HTF^+ and mixing it by rotation overnight at RT. The viscous methylcellulose (1% w/v) medium was introduced into glass capillary tubes [borosilicate microslides (VitroTubes) 0.20 mm × 2.0 mm × 10 cm (VitroCom, USA)] by capillary forces, by placing the glass tubes vertically in a 1.5 mL microfuge tube with 750 μL methylcellulose (1% w/v) for 15min. Care was taken to prevent air bubbles from entering the glass tubes. The end of the glass tube that was placed in the microfuge tube was sealed with wax (Hounisens laboratorieudstyr A/S, Denmark). […] The number of sperm cells were counted at 2 cm distance from the opening of the tube, with two fields in each of four planes counted. Throughout the study, all samples were counted by the same observer. Only experiments with a positive increment in cell density at 2 cm for the positive control compared to the negative control and with more than 40 sperm cells counted at 2 cm for the positive control were used for the analysis.

[9] = system: capacitated human sperm cells; assay: Image cytometry-based acrosome reaction assay; type: cell-based; settings: 10 μM, 30 min, vs negative control
Method: The amount of live acrosome reacted sperm cells was measured using an image cytometry-based acrosome reaction assay, as described in Rehfeld et al. ([41]). Briefly, capacitated sperm cells (10 × 10^6/ml) were divided into equal aliquots and mixed thoroughly with a staining solution containing 5 μg/mL FITC-PSA, 0.5 μg/mL PI, and 10 μg/mL Hoechst in HTF^+. Bisphenols (10 μM) were added to the aliquots of stained capacitated sperm cells together with the positive controls, ionomycin (10 μM), and progesterone (10 μM). As a negative control, HTF^+ with 0.2% DMSO was used. After addition of bisphenols and controls the samples were mixed well and placed on a gentle mixing heating plate at 37°C. After 30 min of incubation, the aliquots were mixed thoroughly by pipetting and a 50 μL sample was drawn and added to a 100 μL aliquot of an immobilizing solution containing 0.6 M NaHCO3 and 0.37% (v/v) formaldehyde in distilled water. This solution was mixed well by pipetting, immediately loaded in an A2 slide (ChemoMetec A/S, Allerød, Denmark) and assessed in a NC-3000 image cytometer (ChemoMetec A/S, Allerød, Denmark). The following protocol was applied: 2-color flexicyte with Hoechst defining the sperm cells to be analyzed; Ex475-Em560/35: exposure time 3,000 ms, Ex530-Em675/75: exposure time 500 ms, with a minimum of 5,000 analyzed cells (positive for Hoechst). […]

CatSper = assay: Induced Ca^2+ signals in absence or presence of CatSper inhibitor RU1968; settings: RU1968 30 μM; bisphenols 5–50 μM, progesterone 5 μM; n = 3
[10] = bisphenol 10 μM, peak Ca^2+ signal divided by that of progesterone 5 μM in the same experiment
[11] = dose response of induced Ca^2+ signals, n = 3–7
[12] = Ca^2+ signals induced by 100 nM progesterone after pre-incubation, n = 3–5

| Structure (SMILES) | Induction of Ca^2+ signals in human sperm cells (in words) (human sperm cells [1]) | EC05, μM Mean (human sperm cells [1]; n = 3–7) [µM] | Dose-dependent inhibition of progesterone-induced Ca^2+ signals (in words) [2] | activation at 10 µM (human sperm cells [1]; [10]) [%] | Induction of Ca^2+ signals in SKBR3 cells via GPER [6] | EC50 (human sperm cells [1]; [11]) [µM] | other results |
| --- | --- | --- | --- | --- | --- | --- | --- |
| CC(C)(c1ccc(OCC2CO2)cc1)c1ccc(OCC2CO2)cc1 (stereo not shown) [BADGE, Bisphenol A diglycidyl ether] | can induce Ca^2+ signals | 1.82 | dose-dependently inhibit | – | – | – | EC50 (human sperm cells [1]): 8.18 µM; activation at 10 µM (human sperm cells [1]): 14.8% |
| CC(C)(c1ccc(O)cc1)c1ccc(O)cc1 [BPA, Bisphenol A] | induced no Ca^2+ signals; also recorded: do not induce Ca^2+ signals | – | – | 1.44 | induce Ca^2+ signals | – | Dose inducing mitochondrial dysfunction in human sperm (human sperm [3]): ≥ 300 µM; Effect on human sperm motility parameters (human sperm [4]): could affect human sperm motility parameters; Effect on [Ca^2+]i in single human sperm cells (human sperm cells [5]; 1 μM ref 40): rapid, transient increase; Effect on [Ca^2+]i in human sperm cells (human sperm cells [5]; 0.1, 1, and 10 μM ref 34): did not affect; Activation of other voltage-activated Ca^2+ channels [7]: activate; Inhibition of other voltage-activated Ca^2+ channels [7]: inhibit |
| Oc1ccc(C(c2ccc(O)cc2)(C(F)(F)F)C(F)(F)F)cc1 [BPAF, Bisphenol AF] | can induce Ca^2+ signals | 0.36 | dose-dependently inhibit | – | induce Ca^2+ signals | – | EC50 (human sperm cells [1]): 2.4 µM; activation at 10 µM (human sperm cells [1]): 58%; IC50 [2]: 12.3 µM; Numbers of human sperm cells penetrating into a viscous medium (human sperm cells [8]): significant increase; Live acrosome reacted sperm cells [9]: significant increase |
| CCC(C)(c1ccc(O)cc1)c1ccc(O)cc1 [BPB, Bisphenol B] | can induce Ca^2+ signals | 2.37 | dose-dependently inhibit | 11.8 | induce Ca^2+ signals | 14.9 | IC50 [2, 12]: 39.9 µM |
| Oc1ccc(C(c2ccccc2)(c2ccccc2)c2ccc(O)cc2)cc1 [BPBP, Bisphenol BP] | can induce Ca^2+ signals | 0.38 | all bisphenols, except BPBP, were able to dose dependently inhibit | 9.09 | – | 0.79 | – |
| Cc1cc(C(C)(C)c2ccc(O)c(C)c2)ccc1O [BPC, Bisphenol C] | can induce Ca^2+ signals | 0.70 | dose-dependently inhibit | 21.7 | – | 10.3 | IC50 [2, 12]: 45.2 µM |
| CC(c1ccc(O)cc1)c1ccc(O)cc1 [BPE, Bisphenol E] | induced no Ca^2+ signals | – | – | – | – | – | activation at 10 µM (human sperm cells [1]): 5.37% |
| Oc1ccc(Cc2ccc(O)cc2)cc1 [BPF, Bisphenol F] | induced no Ca^2+ signals | – | – | 5.09 | induce Ca^2+ signals | – | – |
| CC(C)c1cc(C(C)(C)c2ccc(O)c(C(C)C)c2)ccc1O [BPG, Bisphenol G] | can induce Ca^2+ signals | 0.18 | dose-dependently inhibit | 109 | – | 1.27 | IC50 [2, 12]: 1.86 µM; Numbers of human sperm cells penetrating into a viscous medium (human sperm cells [8]): significant increase; Live acrosome reacted sperm cells [9]: significant increase |
| O=S(=O)(c1ccc(O)cc1)c1ccc(O)cc1 [BPS, Bisphenol S] | induced no Ca^2+ signals | – | – | 4.41 | induce Ca^2+ signals | – | – |
| CC(=O)[C@H]1CC[C@H]2[C@@H]3CCC4=CC(=O)CC[C@]4(C)[C@H]3CC[C@]12C [progesterone] | – | – | – | – | – | – | Inhibition of the induced Ca^2+ signal in the presence of RU1968 (CatSper): highly inhibited by RU1968 |
